POD vs vehicle data for 12 compounds are collected here from the supplement of paper PMC11368000.

In one assay the test system is 1518 (donor line of iPSC-derived cardiomyocytes). Nature of the assay: POD (EC05) for increase in Ca2+ transient decay-to-rise ratio (QT prolongation) vs vehicle; higher = less potent (higher point of departure). To be noted: exposure time: 90 min. Summed up:
(§1)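 Human iPSC-derived cardiomyocytes from 16 donors were cultured 14 days in gelatin-coated 384-well plates and loaded 2 h with fluorescent Ca2+ dye. They were then exposed for 90 min at 37 °C to 0.1, 1, 10 and 100 µM (final, 0.5% DMSO). Ca2+ flux was recorded on a FLIPR Tetra (8 frames/s, 100 s) before and after exposure. Donor-specific points of departure came from hierarchical Bayesian Hill fits to vehicle-normalised beat frequency, decay-to-rise ratio or peak frequency. Thresholds were 5% change, or 95% loss for peak frequency.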
Take `OCC(F)(F)C(F)(F)C(F)(F)C(F)F` [1H,1H,5H-Perfluoropentanol]: the POD vs vehicle is 2.03 µM.
Same read-out and setting: next, `OCC(F)(F)OC(F)(F)C(F)(F)OC(F)(F)C(F)(F)OC(F)(F)F` [Fluorinated_triethylene_glycol_monomethyl_ether]: more than 100 µM; `O=C(O)C(F)(F)C(F)(F)C(F)(F)C(F)(F)C(=O)O` [Octafluoroadipic_acid]: more than 100 µM.
On the same count and under the same terms, the result for `O=C(O)C(F)(F)OC(F)(F)C(F)(F)OC(F)(F)C(F)(F)OC(F)(F)C(F)(F)C(F)(F)C(F)(F)F` [Perfluoro-3,6,9-trioxatridecanoic_acid] reads more than 100 µM.

The test system of a further assay is 1516 (donor line of iPSC-derived cardiomyocytes). Described as above. The settings on record: exposure time: 90 min. The procedure, abridged:
as §1
On to `OCC(F)(F)C(F)(F)C(F)(F)C(F)F` [1H,1H,5H-Perfluoropentanol], for which the POD vs vehicle was 4.56 µM.
Same read-out and setting: the result for `OCC(F)(F)C(F)(F)C(F)(F)C(F)(F)C(F)(F)C(F)(F)F` [6:1 Fluorotelomer alcohol] reads more than 100 µM; that for `O=C([O-])C(F)(F)C(F)(F)C(F)(F)C(F)(F)C(F)(F)C(F)(F)C(F)(F)F.[NH4+]` [Ammonium_perfluorooctanoate], more than 100 µM.
Same read-out and setting: the result for `OCC(F)(F)OC(F)(F)C(F)(F)OC(F)(F)C(F)(F)OC(F)(F)F` [Fluorinated_triethylene_glycol_monomethyl_ether] reads more than 100 µM.
Same read-out and setting: next, `O=C(O)C(F)(F)C(F)(F)C(F)(F)C(F)(F)C(=O)O` [Octafluoroadipic_acid]: more than 100 µM; `NC(=O)C(F)(F)C(F)(F)C(F)(F)C(F)(F)C(F)(F)C(F)(F)C(F)(F)F` [Perfluorooctanamide]: more than 100 µM; `N=C(N)C(F)(F)C(F)(F)C(F)(F)C(F)(F)C(F)(F)C(F)(F)C(F)(F)F` [Perfluorooctanamidine]: more than 100 µM.

The subject of another assay is 1434 (donor line of iPSC-derived cardiomyocytes). Nature of the assay: POD (EC10) for decrease in total cell number (cytotoxicity) vs vehicle; higher = less potent (higher point of departure). The settings on record: exposure time: 90 min. As to the method: (§2)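 Human iPSC-derived cardiomyocytes from 16 donors were exposed for 90 min at 37 °C to each PFAS at 0.1, 1, 10 and 100 µM in 0.5% DMSO, 384-well plates. Kinetic Ca2+ flux (FLIPR) and Hoechst nuclei counts were normalised to vehicle wells and fitted with a hierarchical Bayesian Hill model to give donor-specific PODs: EC05 for beat-rate increase or decrease and for decay-to-rise ratio increase (QT proxy), EC95 for peak-frequency loss (asystole), EC10 for total cell number loss. 0.03 µM is the lower bound.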
Compound `OCC(F)(F)C(F)(F)C(F)(F)C(F)F` [1H,1H,5H-Perfluoropentanol] had a POD vs vehicle of more than 100 µM.
Same read-out and setting: next, `O=S(=O)(OCC(F)(F)F)C(F)(F)C(F)(F)C(F)(F)C(F)(F)F` [2,2,2-Trifluoroethyl_perfluorobutanesulfonate]: more than 100 µM; `OCCC(F)(F)C(F)(F)C(F)(F)C(F)(F)F` [4:2 Fluorotelomer alcohol]: more than 100 µM; `OCC(F)(F)C(F)(F)C(F)(F)C(F)(F)C(F)(F)C(F)(F)F` [6:1 Fluorotelomer alcohol]: 13.1 µM.
The same measure, in the same setting: the result for `O=C([O-])C(F)(F)C(F)(F)C(F)(F)C(F)(F)C(F)(F)C(F)(F)C(F)(F)F.[NH4+]` [Ammonium_perfluorooctanoate] reads more than 100 µM.
`NC(=O)C(F)(F)C(F)(F)C(F)(F)F` [Heptafluorobutyramide] gave a POD vs vehicle of more than 100 µM.
On the same count and under the same terms, next, `O=C(O)C(F)(F)C(F)(F)C(F)(F)C(F)(F)C(=O)O` [Octafluoroadipic_acid]: 23.3 µM; `O=C(O)C(F)(F)OC(F)(F)C(F)(F)OC(F)(F)C(F)(F)OC(F)(F)C(F)(F)C(F)(F)C(F)(F)F` [Perfluoro-3,6,9-trioxatridecanoic_acid]: 33.3 µM; `NC(=O)C(F)(F)C(F)(F)C(F)(F)C(F)(F)C(F)(F)C(F)(F)C(F)(F)F` [Perfluorooctanamide]: more than 100 µM.
The same measure, in the same setting: next, `N=C(N)C(F)(F)C(F)(F)C(F)(F)C(F)(F)C(F)(F)C(F)(F)C(F)(F)F` [Perfluorooctanamidine]: more than 100 µM.

For the next assay, the system named is 30145 (donor line of iPSC-derived cardiomyocytes). Described as above. To be noted: exposure time: 90 min. As to the method: as §2
`OCC(F)(F)C(F)(F)C(F)(F)C(F)F` [1H,1H,5H-Perfluoropentanol] yielded a POD vs vehicle of more than 100 µM.
Still for that read-out and setting: next, `O=S(=O)(OCC(F)(F)F)C(F)(F)C(F)(F)C(F)(F)C(F)(F)F` [2,2,2-Trifluoroethyl_perfluorobutanesulfonate]: more than 100 µM; `OCCC(F)(F)C(F)(F)C(F)(F)C(F)(F)F` [4:2 Fluorotelomer alcohol]: 49.9 µM.
The same measure, in the same setting: next, `OCC(F)(F)C(F)(F)C(F)(F)C(F)(F)C(F)(F)C(F)(F)F` [6:1 Fluorotelomer alcohol]: more than 100 µM; `O=C([O-])C(F)(F)C(F)(F)C(F)(F)C(F)(F)C(F)(F)C(F)(F)C(F)(F)F.[NH4+]` [Ammonium_perfluorooctanoate]: more than 100 µM; `OCC(F)(F)OC(F)(F)C(F)(F)OC(F)(F)C(F)(F)OC(F)(F)F` [Fluorinated_triethylene_glycol_monomethyl_ether]: more than 100 µM.
Same read-out and setting: next, `NC(=O)C(F)(F)C(F)(F)C(F)(F)F` [Heptafluorobutyramide]: more than 100 µM; `O=C(O)C(F)(F)C(F)(F)C(F)(F)C(F)(F)C(=O)O` [Octafluoroadipic_acid]: more than 100 µM; `O=C(O)C(F)(F)OC(F)(F)C(F)(F)OC(F)(F)C(F)(F)OC(F)(F)C(F)(F)C(F)(F)C(F)(F)F` [Perfluoro-3,6,9-trioxatridecanoic_acid]: more than 100 µM.
`O=C(O)C(F)(F)C(F)(F)C(F)(F)C(F)(F)C(F)(F)C(F)(F)F` [Perfluoroheptanoic_acid] displayed a POD vs vehicle of more than 100 µM.
Still for that read-out and setting: next, `NC(=O)C(F)(F)C(F)(F)C(F)(F)C(F)(F)C(F)(F)C(F)(F)C(F)(F)F` [Perfluorooctanamide]: more than 100 µM; `N=C(N)C(F)(F)C(F)(F)C(F)(F)C(F)(F)C(F)(F)C(F)(F)C(F)(F)F` [Perfluorooctanamidine]: more than 100 µM.

In a further assay the test system is 1535 (donor line of iPSC-derived cardiomyocytes). The assay is described as above. To be noted: exposure time: 90 min. As to the method: as §2
`OCC(F)(F)C(F)(F)C(F)(F)C(F)F` [1H,1H,5H-Perfluoropentanol] came in with a POD vs vehicle of more than 100 µM.
Consider `O=S(=O)(OCC(F)(F)F)C(F)(F)C(F)(F)C(F)(F)C(F)(F)F` [2,2,2-Trifluoroethyl_perfluorobutanesulfonate], for which the POD vs vehicle is more than 100 µM.
Same read-out and setting: next, `OCCC(F)(F)C(F)(F)C(F)(F)C(F)(F)F` [4:2 Fluorotelomer alcohol]: more than 100 µM; `OCC(F)(F)C(F)(F)C(F)(F)C(F)(F)C(F)(F)C(F)(F)F` [6:1 Fluorotelomer alcohol]: more than 100 µM.
Take `O=C([O-])C(F)(F)C(F)(F)C(F)(F)C(F)(F)C(F)(F)C(F)(F)C(F)(F)F.[NH4+]` [Ammonium_perfluorooctanoate]: the POD vs vehicle was more than 100 µM.
Same read-out and setting: the result for `OCC(F)(F)OC(F)(F)C(F)(F)OC(F)(F)C(F)(F)OC(F)(F)F` [Fluorinated_triethylene_glycol_monomethyl_ether] reads more than 100 µM; that for `NC(=O)C(F)(F)C(F)(F)C(F)(F)F` [Heptafluorobutyramide], more than 100 µM.
The same measure, in the same setting: the result for `O=C(O)C(F)(F)C(F)(F)C(F)(F)C(F)(F)C(=O)O` [Octafluoroadipic_acid] reads more than 100 µM; that for `O=C(O)C(F)(F)OC(F)(F)C(F)(F)OC(F)(F)C(F)(F)OC(F)(F)C(F)(F)C(F)(F)C(F)(F)F` [Perfluoro-3,6,9-trioxatridecanoic_acid], more than 100 µM; that for `O=C(O)C(F)(F)C(F)(F)C(F)(F)C(F)(F)C(F)(F)C(F)(F)F` [Perfluoroheptanoic_acid], more than 100 µM.
The same measure, in the same setting: the result for `NC(=O)C(F)(F)C(F)(F)C(F)(F)C(F)(F)C(F)(F)C(F)(F)C(F)(F)F` [Perfluorooctanamide] reads more than 100 µM.
`N=C(N)C(F)(F)C(F)(F)C(F)(F)C(F)(F)C(F)(F)C(F)(F)C(F)(F)F` [Perfluorooctanamidine]: the POD vs vehicle was more than 100 µM.

The test system of the next assay is 1392 (donor line of iPSC-derived cardiomyocytes). The assay is described as above. The settings on record: exposure time: 90 min. As to the method: as §2
`OCC(F)(F)C(F)(F)C(F)(F)C(F)F` [1H,1H,5H-Perfluoropentanol]: the POD vs vehicle is more than 100 µM.
In turn, `O=S(=O)(OCC(F)(F)F)C(F)(F)C(F)(F)C(F)(F)C(F)(F)F` [2,2,2-Trifluoroethyl_perfluorobutanesulfonate] showed a POD vs vehicle of more than 100 µM.
On the same count and under the same terms, the result for `OCCC(F)(F)C(F)(F)C(F)(F)C(F)(F)F` [4:2 Fluorotelomer alcohol] reads more than 100 µM; that for `OCC(F)(F)C(F)(F)C(F)(F)C(F)(F)C(F)(F)C(F)(F)F` [6:1 Fluorotelomer alcohol], more than 100 µM.
